What was measured:
[1] = Inventors' investigation of activity of improving osteoporosis (no method given); conditions: no data or method given
Primary Osteoporosis [2] = assay: Clinical test of RDE on primary osteoporosis: bone density by double-energy X-ray bone density meter; type: in vivo, human; conditions: for Bone density of collum femoris / Bone density of trigonal area of femur / Bone density of trochanteric of femur / Bone density of lumber (L2–L4): RDE 180 mg po tid, α-D3 0.5 μg po bid; for Bone density of lumber (L2–L4): n=17 per group
Description: (§1) The drugs with the following dosages and contents are used unless additional explanations.
(§2) Extracts in this present invention: capsules of preparation example 1, each capsule contains 0.18 g of effective component. Positive control medicine: α-D3, (synthesized by TEVA PHARMACEUTICALS, Israel, prepared by Sino-US Kunming BARKER NORTON PHARMACEUTICAL CO., LTD), each capsule contains 0.5 μg of effective component)
(§3) Diagnostic criteria: Comprehensive Diagnostic Grades for Primary Osteoporosis, according to the diagnostic criteria established by Specialized Committee of Osteoporosis of Chinese Association of Geriatrics. (cf. Gu-zhi-shu-song-zheng [M], p169–171, LIU Zhonghou eds. Chemical Industrial Press, Guangzhou, 1992)
(§4) According to the diagnostic criteria mentioned above, 70 cases of osteoporosis are randomly divided into treatment group with RDE and control group with α-D3. RDE is administrated 180 mg, per os, tid, for 6 months-2 period of treatment. And α-D3 is administrated 0.5 μg, per os, bid, for 6 months too.
(§5) Bone density of lumbar (L2–L4) and top-femur (collum femoris, trigonal area of femur, trochanteric of femur) is checked respectively by Double-Energy X-ray Bone Density Meter (LUNAR DPX-L DEXA bone densitometer,US). The unit is g/cm^2. And an Ultrasonic Bone Densitometer (model 2000-SYS-220, METRA Co., Israel) is employed to check the bone density of mid-portion of tibia.

Primary Osteoporosis [3] = assay: Clinical test of RDE on primary osteoporosis: ultrasonic bone density of mid-portion of tibia; type: in vivo, human; conditions: for ultrasonic bone density, Age matched (difference value) / ultrasonic bone density, Young adult (difference value): RDE 180 mg po tid (n=16), α-D3 0.5 μg po bid (n=15)
Description: as §1, §2, §3, §4, §5

[4] = test system: Tretinoin-induced osteoporosis in rats; assay: Bone density in Tretinoin-induced osteoporosis model in rats; type: in vivo, Wistar rats
Description: (§6) Observe the effect of RDE in this invention on both Tretinoin-induced and Ovariectomized (OVX) osteoporosis model in rats.
(§7) RDE was produced according to Example 1 (Per gram extract is equivalent to 66.67 g crude drugs). RDE was dissolved in distilled water to a concentration of 0.47 mg/ml before administration. And administration was conducted via gastric tube. Tretinoin is manufactured by Chongqing Huabang Pharmaceuticals, Ltd. and was suspended to the concentration of 1.5% with distilled water. Control drug α-D3 was manufactured by TEVA PHARMACEUTICALS, Israel, which is solved in distilled water to the concentration of 0.03 μg/ml before using and administrated orally via gastric tube.
(§8) Tretinoin-induced osteoporosis rats: sixty female W istar rats, 16-week-old, mean weight 234.85±15.32 g. Ovariectomized rats: sixty female Wistar rats, 12-week-old, mean weight 183.46±12.45 g. All the animals are obtained from the Experimental Animal Center of Chinese Military Medical Academy.
(§9) Bone Biomechanics Rheometer was manufactured by Stevens Company, Great Britain (model QTS-25). X ray Bone-density-meter was manufactured by Norland Company, USA (model XR-26). The others are all obtained from market.
(§10) 4. Dose Selections and Groups: • (1) Tretinoin-induced group: Sixty rats are randomly allocated to six groups (10 rats per group). Blank group: control animals received PSS/d (physiological saline solution) alone. […]
(§11) The dose administered to each animal is calculated from the individual body weight recorded at the end of each week. […]
(§12) 7. […] Bone biomechanics measurements: three point bending tests of left thighbone of each animal are performed; load-deformation curve is recorded to measure the biomechanics index. […] Bone structural mechanics parameters: breaking load, elastic load, maximum radius, elastic radius, maximum energy absorption; bone material mechanics parameters: firstly calculated the Femoral Section Inertial Moment, then computed the maximum strain, elastic strain, maximum stress, elastic stress and elastic modulus according to the formulae. […]

[5] = test system: Ovariectomized (OVX) rats; assay: Bone density in Ovariectomized (OVX) osteoporosis model in rats; type: in vivo, Wistar rats
Description: as §6, §7, §8, §9, §10, §11, §12

[6] = test system: Tretinoin-induced osteoporosis in rats; assay: Bone biomechanics (three point bending of left thighbone) in Tretinoin-induced osteoporosis rats; type: in vivo, Wistar rats
Description: as §6, §7, §8, §9
4. Dose Selections and Groups: • (1) Tretinoin-induced group: Sixty rats are randomly allocated to six groups (10 rats per group). Blank group: control animals received PSS/d (physiological saline solution) alone. Model group: Tretinoin is given orally 70 mg/kg/d; α-D3 group: both tretinoin and α-D3 are given orally 70 mg/kg/d and 0.002 μg/kg/d respectively; RDE low-dose group: both tretinoin and RDE are given orally 70 mg/kg/d and 54 mg/kg/d respectively; RDE medium-dose group: tretinoin 70 mg/kg/d and RDE 108 mg/kg/d; RDE high-dose group: tretinoin 70 mg/kg/d and RDE 216 mg/kg/d. • (2) Ovariectomized (OVX) rats group: Sixty rats are randomly allocated to six groups (10 rats per group). Blank group is the normal rats. All the other groups are removed amphi-ovaries. Model group received PSS only; α-D3 group: α-D3 is administrated orally 0.002 μg/kg/d; And RDE is administrated orally in the dose of 54, 108, 216 mg/kg/day to OVX rats respectively, corresponding to RDE groups of low-dose, medium-dose and high-dose.
The dose administered to each animal is calculated from the individual body weight recorded at the end of each week.
Tretinoin-induced osteoporosis groups: Blank group received PSS during the course of experiment. The other groups commenced treatment on the same day, designated study Day 1, and once-daily tretinoin orally given for 14 days, after which they stopped administrating tretinoin. Both blank and model groups are given PSS in Day 15, and α-D3 group is given α-D3, RDE groups are given the corresponding dose of RDE orally for 14 days. The final dose is given in the Day 28 before sacrificed. Investigation of Bone Density and Bone-biomechanics are performed in the Day 29.
7. Measurements • 7.1. Bone density measurements are performed on No.2–4 lumbar spines and right thighbone of each animal. • 7.2. Bone biomechanics measurements: three point bending tests of left thighbone of each animal are performed; load-deformation curve is recorded to measure the biomechanics index. Experimental parameters: span 20 mm, loading velocity 10 mm/min. Bone structural mechanics parameters: breaking load, elastic load, maximum radius, elastic radius, maximum energy absorption; bone material mechanics parameters: firstly calculated the Femoral Section Inertial Moment, then computed the maximum strain, elastic strain, maximum stress, elastic stress and elastic modulus according to the formulae. [Results]

[7] = test system: Ovariectomized (OVX) rats; assay: Bone biomechanics (three point bending of left thighbone) in Ovariectomized (OVX) rats; type: in vivo, Wistar rats
Description: Observe the effect of RDE in this invention on both Tretinoin-induced and Ovariectomized (OVX) osteoporosis model in rats. […] RDE was dissolved in distilled water to a concentration of 0.47 mg/ml before administration. And administration was conducted via gastric tube. Tretinoin is manufactured by Chongqing Huabang Pharmaceuticals, Ltd. and was suspended to the concentration of 1.5% with distilled water. Control drug α-D3 was manufactured by TEVA PHARMACEUTICALS, Israel, which is solved in distilled water to the concentration of 0.03 μg/ml before using and administrated orally via gastric tube. Tretinoin-induced osteoporosis rats: sixty female […]-old, mean weight 234.85±15.32 g. Ovariectomized rats: sixty female Wistar rats, 12-week-old, mean weight 183.46±12.45 g. All the animals are obtained from the Experimental Animal Center of Chinese Military Medical Academy. Bone Biomechanics Rheometer was manufactured by Stevens Company, Great Britain (model QTS-25). X ray Bone-density-meter was manufactured by Norland Company, USA (model XR-26). The others are all obtained from market. 4. Dose Selections and Groups: • (1) Tretinoin-induced group: Sixty rats are randomly allocated to six groups (10 rats per group). Blank group: control animals received PSS/d (physiological saline solution) alone. Model group: Tretinoin is given orally 70 mg/kg/d; α-D3 group: both tretinoin and α-D3 are given orally 70 mg/kg/d and 0.002 μg/kg/d respectively; RDE low-dose group: both tretinoin and RDE are given orally 70 mg/kg/d and 54 mg/kg/d respectively; RDE medium-dose group: tretinoin 70 mg/kg/d and RDE 108 mg/kg/d; RDE high-dose group: tretinoin 70 mg/kg/d and RDE 216 mg/kg/d. • (2) Ovariectomized (OVX) rats group: Sixty rats are randomly allocated to six groups (10 rats per group). Blank group is the normal rats. All the other groups are removed amphi-ovaries. Model group received PSS only; α-D3 group: α-D3 is administrated orally 0.002 μg/kg/d; And RDE is administrated orally in the dose of 54, 108, 216 mg/kg/day to OVX rats respectively, corresponding to RDE groups of low-dose, medium-dose and high-dose. The dose administered to each animal is calculated from the individual body weight recorded at the end of each week. OVX rats groups: Both blank and model groups are given the same volume of distilled water orally, All the other groups commenced treatment according to the way mentioned above for 12 weeks after which animals are sacrificed and investigation of Bone Density and Bone-biomechanics are performed. 7. Measurements • 7.1. […] Bone biomechanics measurements: three point bending tests of left thighbone of each animal are performed; load-deformation curve is recorded to measure the biomechanics index. Experimental parameters: span 20 mm, loading velocity 10 mm/min. Bone structural mechanics parameters: breaking load, elastic load, maximum radius, elastic radius, maximum energy absorption; bone material mechanics parameters: firstly calculated the Femoral Section Inertial Moment, then computed the maximum strain, elastic strain, maximum stress, elastic stress and elastic modulus according to the formulae. [Results]

[8] = α-D3 0.002 μg/kg/d oral 14 days after tretinoin 70 mg/kg/d 14 days
[9] = OVX rats, α-D3 0.002 μg/kg/d oral 12 weeks

C[C@@H]1O[C@@H](O[C@H]2[C@H](Oc3cc(O)c4c(c3)O[C@H](c3ccc(O)cc3)CC4=O)O[C@H](CO)[C@@H](O)[C@@H]2O)[C@H](O)[C@H](O)[C@H]1O [naringin]
activity of improving osteoporosis [1]: has the activity of improving osteoporosis
efficiency in improving osteoporosis relative to the active extracts [1]: lower than the active extracts

C=C1/C(=C\C=C2/CCC[C@]3(C)[C@@H]([C@H](C)CCCC(C)C)CC[C@@H]23)C[C@@H](O)C[C@@H]1O [α-D3]
Bone density of collum femoris (Primary Osteoporosis [2]; Before-treatment (baseline)): 0.748 ± 0.095 g/cm^2
Bone density of trigonal area of femur (Primary Osteoporosis [2]; Before-treatment (baseline)): 0.582 ± 0.125 g/cm^2
Bone density of trochanteric of femur (Primary Osteoporosis [2]; Before-treatment (baseline)): 0.606 ± 0.109 g/cm^2
Bone density of lumber (L2–L4) (Primary Osteoporosis [2]; Before-treatment (baseline)): 0.958 ± 0.180 g/cm^2
Change of bone density of collum femoris after vs before treatment (Primary Osteoporosis [2]; after 3 and 6 months, within group): no significant difference
Bone density of collum femoris (Primary Osteoporosis [2]; after 3 months treatment): 0.744 ± 0.100 g/cm^2
Bone density of trigonal area of femur (Primary Osteoporosis [2]; after 3 months treatment): 0.591 ± 0.124 g/cm^2
Bone density of trochanteric of femur (Primary Osteoporosis [2]; after 3 months treatment): 0.616 ± 0.099 g/cm^2
Bone density of lumber (L2–L4) (Primary Osteoporosis [2]; after 3 months treatment): 0.954 ± 0.179 g/cm^2
Change of bone density of lumber (L2–L4) after vs before treatment (Primary Osteoporosis [2]; after 3 or 6 months treatment, within group): no improvement
Bone density of collum femoris (Primary Osteoporosis [2]; after 6 months treatment): 0.744 ± 0.093 g/cm^2
Bone density of trigonal area of femur (Primary Osteoporosis [2]; after 6 months treatment): 0.581 ± 0.134 g/cm^2
Bone density of trochanteric of femur (Primary Osteoporosis [2]; after 6 months treatment): 0.616 ± 0.094 g/cm^2
Bone density of lumber (L2–L4) (Primary Osteoporosis [2]; after 6 months treatment): 0.958 ± 0.145 g/cm^2
ultrasonic bone density, Age matched (difference value) (Primary Osteoporosis [3]; Before-treatment (baseline)): −1.433 ± 0.788 g/cm^2
ultrasonic bone density, Young adult (difference value) (Primary Osteoporosis [3]; Before-treatment (baseline)): −1.993 ± 0.872 g/cm^2
Speed sound, change self-compared within group (Primary Osteoporosis [3]; RDE P<0.01, α-D3 P<0.05): increase significantly
ultrasonic bone density, Age matched (difference value) (Primary Osteoporosis [3]; after 3 months treatment): −1.386 ± 0.908 g/cm^2
ultrasonic bone density, Young adult (difference value) (Primary Osteoporosis [3]; after 3 months treatment): −1.953 ± 1.181 g/cm^2
ultrasonic bone density, Age matched (difference value) (Primary Osteoporosis [3]; after 6 months treatment): −0.987 ± 1.068 g/cm^2
ultrasonic bone density, Young adult (difference value) (Primary Osteoporosis [3]; after 6 months treatment): −0.593 ± 1.209 g/cm^2
femoral bone density compared with model group ([4]; Tretinoin-induced osteoporosis rats (Table 9)): increased obviously
Bone density Lumber spine [4, 8]: 0.135 ± 0.005 g/cm^2
Bone density thighbone [4, 8]: 0.137 ± 0.004 g/cm^2
femoral bone density compared with model group ([5]; OVX rats (Table 10)): increased obviously
Bone density Lumber spine [5, 9]: 0.13 ± 0.009 g/cm^2
Bone density thighbone [5, 9]: 0.13 ± 0.009 g/cm^2
all the bone structural mechanics indicators compared with model group ([6]; Tretinoin-induced osteoporosis rats (Table 11)): increased significantly
Elastic load [6, 8]: 100.40 ± 7.00 N
Elastic strain (material) [6, 8]: 0.03 ± 0.01
Elastic strain (structural) [6, 8]: 1.01 ± 0.14 mm
Elastic stress [6, 8]: 177.6 ± 51.3 N/mm^2
Maximum energy observation [6, 8]: 635.73 ± 114.46 N-mm
Maximum load [6, 8]: 103.20 ± 3.40 N
Maximum strain (material) [6, 8]: 0.03 ± 0.009
Maximum strain (structural) [6, 8]: 0.98 ± 0.14 mm
Maximum stress [6, 8]: 167.2 ± 44.5 N/mm^2
Rigidity coefficient [6, 8]: 30561 ± 9194 N/mm^2
all the bone structural mechanics indicators compared with model group ([7]; OVX rats (Table 12)): increased significantly
Area of bone cortes [7, 9]: 4.13 ± 0.99
Elastic load [7, 9]: 88.6 ± 12.7 N
Elastic mould [7, 9]: 7992 ± 1132
Elastic strain (material) [7, 9]: 0.03 ± 0.010
Elastic stress [7, 9]: 147.2 ± 11.00 N/mm^2
Maximum energy observation [7, 9]: 520.48 ± 108.44 N-mm^2
Maximum load [7, 9]: 102.1 ± 2.90 N
Maximum strain (material) [7, 9]: 0.03 ± 0.006
Maximum strain (structural) [7, 9]: 0.96 ± 0.10 mm
Maximum stress [7, 9]: 221.5 ± 46.50 N/mm^2
Rigidity coefficient [7, 9]: 27508 ± 8073

Source: patent US7122214B2, “Drynaria extractions for treating osteoporosis and their extraction process” (priority 2000, dated 2006)
